The target of experiment [1] is ligand binding domain of human FXR (Homo sapiens (Human), UniProt Q96RI1). Description: FXR ligand binding assay (LanthaScreen TR-FRET, SRC2-2 peptide recruitment). Particulars: for pEC50: -log EC50, concentration required to produce 50% activation; for Emax: extent of activation relative to GW4064, read-out: % Efficacy.
Experiment [2] deals with human Farnesoid X receptor ligand-binding domain/Gal4 DNA binding domain chimera (Homo sapiens (Human), UniProt Q96RI1). Description: Cell-based assay of FXR activation (FXR-UAS-bla HEK 293T beta-lactamase reporter). The note with it: cellular FXR beta-lactamase reporter assay; for Emax: HEK-293T, extent of activation relative to GW4064, read-out: % Efficacy; for EC50: FXR-UAS-bla HEK 293T cells, 16 h, pEC50 = -log EC50. The method, boiled down:
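Readout is cleavage of the CCF4 FRET substrate (409 nm excitation, blue 447 nm signal) by beta-lactamase, expressed under UAS control after a Gal4–human FXR LBD chimera is activated in HEK 293T cells. Compounds were added as 3-fold dilutions for 16 h at 37 °C in 2% charcoal-stripped FBS medium. Curves were fit to a 3-parameter logistic equation to give pEC50, with % activation relative to GW4064.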
On the technique in general: Reporter assays use an easily measured gene product as a stand-in for the process of interest.

What is called pEC50 is the EC50 on a negative log10 scale, so that one unit is a factor of ten. Low values mean a large EC50, high ones a small EC50. For orientation: EC50 means the concentration that produces a half-maximal response. Higher therefore signals a less potent agent.

Chain of human Farnesoid X receptor ligand-binding domain/Gal4 DNA binding domain chimera (Q96RI1 262-486, change not shown): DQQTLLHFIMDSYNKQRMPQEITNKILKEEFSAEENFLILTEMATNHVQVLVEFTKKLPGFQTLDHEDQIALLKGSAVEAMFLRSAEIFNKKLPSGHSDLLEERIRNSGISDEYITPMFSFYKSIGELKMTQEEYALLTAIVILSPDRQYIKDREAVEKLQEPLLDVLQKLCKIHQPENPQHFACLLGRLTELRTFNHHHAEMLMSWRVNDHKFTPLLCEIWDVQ
Chain of human Farnesoid X receptor ligand-binding domain/Gal4 DNA binding domain chimera (P04386 1-147 partner): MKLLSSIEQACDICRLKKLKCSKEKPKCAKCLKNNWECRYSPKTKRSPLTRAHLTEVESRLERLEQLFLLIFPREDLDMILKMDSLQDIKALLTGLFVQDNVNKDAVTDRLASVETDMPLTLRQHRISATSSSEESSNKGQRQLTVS
Chain of ligand binding domain of human FXR (Q96RI1 262-486): as the sequence (Q96RI1 262-486, change not shown) above

For `O=C(NS(=O)(=O)C1CC1)c1cc(F)c2nc(N3C[C@@H]4C[C@H]3C[C@H]4OC(=O)c3c(-c4c(Cl)cccc4Cl)noc3C3CC3)sc2c1` [Compound I-33, (1S,4S,5R)-2-{6-[(cyclopropanesulfonyl)carbamoyl]-4-fluoro-1,3-benzothiazol-2-yl}-2-azabicyclo[2.2.1]heptan-5-yl 5-cyclopropyl-3-(2,6-dichlorophenyl)-1,2-oxazole-4-carboxylate], in experiment [1], the pEC50 is reported as 7.6 and the Emax turned out to be 136%. In experiment [2], the Emax was 112% and the midpoint of the response, the EC50, lay at 126 nM.
Consider `O=C(O)c1cc(F)c2nc(N3C[C@@H]4C[C@H]3C[C@@H]4OC(=O)c3c(-c4c(Cl)cccc4Cl)noc3C3CC3)sc2c1` [Compound I-34, 2-[(1S,4S,5S)-5-[5-cyclopropyl-3-(2,6-dichlorophenyl)-1,2-oxazole-4-carbonyloxy]-2-azabicyclo[2.2.1]heptan-2-yl]-4-fluoro-1,3-benzothiazole-6-carboxylic Acid], for which the pEC50 in experiment [1] is listed as over 4.5. Moreover, in experiment [2], the Emax stood at 15% and the EC50 was 398 nM.
Compound `O=C(O)c1ccc2nc(N3C[C@@H]4C[C@H]3C[C@@H]4OC(=O)c3c(-c4c(Cl)cccc4Cl)noc3C3CC3)sc2c1` [Compound I-35, 2-[(1S,4S,5S)-5-[5-cyclopropyl-3-(2,6-dichlorophenyl)-1,2-oxazole-4-carbonyloxy]-2-azabicyclo[2.2.1]heptan-2-yl]-1,3-benzothiazole-6-carboxylic Acid] gave a pEC50 in experiment [1] of over 4.5. In addition, in experiment [2], the Emax was determined as 19% and the EC50 was 631 nM.
With `COC(=O)c1cc(F)c2nc(N3C[C@@H]4C[C@H]3C[C@@H]4OCc3c(-c4c(Cl)cccc4Cl)noc3C3CC3)sc2c1` [Compound I-36, Methyl 2-[(1S,4S,5S)-5-{[5-cyclopropyl-3-(2,6-dichlorophenyl)-1,2-oxazol-4-yl]methoxy}-2-azabicyclo[2.2.1]heptan-2-yl]-4-fluoro-1,3-benzothiazole-6-carboxylate], in experiment [1], the negative logarithm of the EC50 (pEC50) is on record as 5.4 and the Emax was 86%. Further, in experiment [2], the Emax was found to be 50% and it took 6310 nM to reach a half-maximal effect (EC50).
For `O=C(O)c1cc(F)c2nc(N3C[C@@H]4C[C@H]3C[C@@H]4OCc3c(-c4c(Cl)cccc4Cl)noc3C3CC3)sc2c1` [Compound I-37, 2-[(1S,4S,5S)-5-{[5-cyclopropyl-3-(2,6-dichlorophenyl)-1,2-oxazol-4-yl]methoxy}-2-azabicyclo[2.2.1]heptan-2-yl]-4-fluoro-1,3-benzothiazole-6-carboxylic Acid] the same measures were over 4.5, 0%, 82% and 1580 nM.
For `O=C(O)c1cc(F)c2nc(N3C[C@H]4C[C@@H]3C[C@@H]4OC(=O)c3c(-c4c(Cl)cccc4Cl)noc3C3CC3)sc2c1` [Compound I-38, 2-[(1R,4R,5S)-5-[5-cyclopropyl-3-(2,6-dichlorophenyl)-1,2-oxazole-4-carbonyloxy]-2-azabicyclo[2.2.1]heptan-2-yl]-4-fluoro-1,3-benzothiazole-6-carboxylic Acid] the same measures were 6.3, 56%, 96% and 200 nM.
The matching figures for `O=C(O)c1cc(F)c2nc(N3C[C@H]4C[C@@H]3C[C@@H]4OCc3c(-c4c(Cl)cccc4Cl)noc3C3CC3)sc2c1` [Compound I-39, 2-[(1R,4R,5S)-5-{[5-cyclopropyl-3-(2,6-dichlorophenyl)-1,2-oxazol-4-yl]methoxy}-2-azabicyclo[2.2.1]heptan-2-yl]-4-fluoro-1,3-benzothiazole-6-carboxylic Acid]: 7.8, 96%, 105% and 50.1 nM.
For the compound `O=C(O)c1cc(F)c2nc(N3C[C@H]4C[C@@H]3C[C@H]4OC(=O)c3c(-c4c(Cl)cccc4Cl)noc3C3CC3)sc2c1` [Compound I-40, 2-[(1R,4R,5R)-5-[5-cyclopropyl-3-(2,6-dichlorophenyl)-1,2-oxazole-4-carbonyloxy]-2-azabicyclo[2.2.1]heptan-2-yl]-4-fluoro-1,3-benzothiazole-6-carboxylic Acid], the pEC50 in experiment [1] is over 4.5. Also, in experiment [2], the EC50 was under 31600 nM.
For the compound `O=C(O)c1cc(F)c2nc(N3C[C@H]4C[C@@H]3C[C@H]4OCc3c(-c4c(Cl)cccc4Cl)noc3C3CC3)sc2c1` [Compound I-41, 2-[(1R,4R,5R)-5-{[5-cyclopropyl-3-(2,6-dichlorophenyl)-1,2-oxazol-4-yl]methoxy}-2-azabicyclo[2.2.1]heptan-2-yl]-4-fluoro-1,3-benzothiazole-6-carboxylic Acid], the pEC50 in experiment [1] is on record as over 4.5. Moreover, in experiment [2], the Emax stood at 40% and the EC50 was 2510 nM.
Turning to `O=C(O)c1ccc(N2C[C@@H]3C[C@H]2C[C@H]3OC(=O)c2c(-c3c(Cl)cccc3Cl)noc2C2CC2)cc1` [Compound I-42, 4-[(1S,4S,5R)-5-[5-cyclopropyl-3-(2,6-dichlorophenyl)-1,2-oxazole-4-carbonyloxy]-2-azabicyclo[2.2.1]heptan-2-yl]benzoic Acid], in experiment [1], the pEC50 was found to be 7.6 and the Emax was 166%. In addition, in experiment [2], the Emax came to 110% and the EC50 is 39.8 nM.
Regarding `O=C(O)c1ccc(N2C[C@@H]3C[C@H]2C[C@H]3OC(=O)c2c(-c3c(Cl)cccc3Cl)noc2C2CC2)c(F)c1` [Compound I-43, 4-[(1S,4S,5R)-5-[5-cyclopropyl-3-(2,6-dichlorophenyl)-1,2-oxazole-4-carbonyloxy]-2-azabicyclo[2.2.1]heptan-2-yl]-3-fluorobenzoic Acid], in experiment [1], the pEC50 was 7.8 and the Emax turned out to be 176%. Besides, in experiment [2], the Emax turned out to be 124% and the midpoint of the response, the EC50, lay at 6.31 nM.
For `O=C(O)c1ccc(N2C[C@@H]3C[C@H]2C[C@H]3OC(=O)c2c(-c3c(Cl)cccc3Cl)noc2C2(F)CC2)c(F)c1` [Compound I-44, 4-[(1S,4S,5R)-5-[3-(2,6-dichlorophenyl)-5-(1-fluorocyclopropyl)-1,2-oxazole-4-carbonyloxy]-2-azabicyclo[2.2.1]heptan-2-yl]-3-fluorobenzoic Acid] the same measures were 7.6, 152%, 107% and 10 nM.
The matching figures for `CS(=O)(=O)NC(=O)c1ccc(N2C[C@@H]3C[C@H]2C[C@H]3OC(=O)c2c(-c3c(Cl)cccc3Cl)noc2C2CC2)cc1` [Compound I-45, (1S,4S,5R)-2-[4-(methanesulfonylcarbamoyl)phenyl]-2-azabicyclo[2.2.1]heptan-5-yl 5-cyclopropyl-3-(2,6-dichlorophenyl)-1,2-oxazole-4-carboxylate]: 7.5, 152%, 107% and 25.1 nM.
For the compound `CCCS(=O)(=O)NC(=O)c1ccc(N2C[C@@H]3C[C@H]2C[C@H]3OC(=O)c2c(-c3c(Cl)cccc3Cl)noc2C2CC2)cc1` [Compound I-46, (1S,4S,5R)-2-{4-[(propane-1-sulfonyl)carbamoyl]phenyl}-2-azabicyclo[2.2.1]heptan-5-yl 5-cyclopropyl-3-(2,6-dichlorophenyl)-1,2-oxazole-4-carboxylate], in experiment [1], the pEC50 amounted to 7.9 and the Emax was determined as 174%. Besides, in experiment [2], the Emax worked out at 110% and it took 12.6 nM to reach a half-maximal effect (EC50).
`O=C(NS(=O)(=O)C1CC1)c1ccc(N2C[C@@H]3C[C@H]2C[C@H]3OC(=O)c2c(-c3c(Cl)cccc3Cl)noc2C2CC2)cc1` [Compound I-47, (1S,4S,5R)-2-{4-[(cyclopropanesulfonyl)carbamoyl]phenyl}-2-azabicyclo[2.2.1]heptan-5-yl 5-cyclopropyl-3-(2,6-dichlorophenyl)-1,2-oxazole-4-carboxylate]: in experiment [1], the pEC50 is recorded as 7.8 and the Emax turned out to be 174%. Further, in experiment [2], the Emax is 106% and the response was half-maximal at 15.8 nM (EC50).
In the case of `CS(=O)(=O)NC(=O)c1ccc(N2C[C@@H]3C[C@H]2C[C@H]3OC(=O)c2c(-c3c(Cl)cccc3Cl)noc2C2CC2)c(F)c1` [Compound I-48, (1S,4S,5R)-2-[2-fluoro-4-(methanesulfonylcarbamoyl)phenyl]-2-azabicyclo[2.2.1]heptan-5-yl 5-cyclopropyl-3-(2,6-dichlorophenyl)-1,2-oxazole-4-carboxylate], in experiment [1], the pEC50 stood at 7.6 and the Emax was 199%. In experiment [2], the Emax stood at 119% and the EC50 is 6.31 nM.
The matching figures for `CCCS(=O)(=O)NC(=O)c1ccc(N2C[C@@H]3C[C@H]2C[C@H]3OC(=O)c2c(-c3c(Cl)cccc3Cl)noc2C2CC2)c(F)c1` [Compound I-49, (1S,4S,5R)-2-{2-fluoro-4-[(propane-1-sulfonyl)carbamoyl]phenyl}-2-azabicyclo[2.2.1]heptan-5-yl 5-cyclopropyl-3-(2,6-dichlorophenyl)-1,2-oxazole-4-carboxylate]: 8, 188%, 118% and 3.98 nM.
The matching figures for `O=C(O[C@@H]1C[C@@H]2C[C@H]1CN2c1ccc(-c2nn[nH]n2)cc1)c1c(-c2c(Cl)cccc2Cl)noc1C1CC1` [Compound I-50, (1S,4S,5R)-2-[4-(2H-1,2,3,4-tetrazol-5-yl)phenyl]-2-azabicyclo[2.2.1]heptan-5-yl 5-cyclopropyl-3-(2,6-dichlorophenyl)-1,2-oxazole-4-carboxylate]: 6.8, 184%, 109% and 15.8 nM.

The values are drawn from US10793568B2, “Hormone receptor modulators for treating metabolic conditions and disorders” (ARDELYX, INC., priority 2016, dated 2020).
